Results published in patent publication US10632110B2, “Pharmaceutical composition for preventing or treating cancer and method using thereof” (MEDPACTO INC., priority 2016, dated 2020).
Marks after values point to notes of the source that are not given here.

Assays:
Format in all cases: in vivo, C57BL/6 mice
[1] = tested on: B16F10 melanoma cell line; assay: Test of tumor inhibitory effects of drug in mouse model; set-up: tumor inhibition rate (vs. vehicle, human IgG or hamster IgG administered group): concentration or dose not given beside the values; conditions: for Tumor volume change (Δt = Vt − V0): TEW-7197 25 mg/kg oral, antibody about 100 μg per mouse
Protocol: (§1) In order to validate in vivo anti-tumor effects, female 5 week-old SPF C57BL/6 mice were purchased from Koatech Co. (South Korea). These mice were maintained in a room controlled at a temperature of about 22° C. while freely supplying food and water to them. 1 week after, 5×10^4 cells of B16F10 melanoma cell line (ATCC, CRL-6475™) were injected to these 6 week-old mice by subcutaneous injection. 8 week-old mice, 2 weeks after the injection of melanoma cell line, were used in the experiment.
(§2) As a carrier, 7 ml of 37% (v/v) […], 2.0 g of NaCl, 3.2 g of pepsin (Sigma-Aldrich), and distilled water were mixed together to prepare 1,000 ml of artificial gastric fluid. As an administration drug, N-((4-([1,2,4]triazolo[1,5-a]pyridin-6-yl)-5-(6-methylpyridin-2-yl)-1H-imidazol-2-yl)methyl)-2-fluoroaniline (hereinafter, referred to as “TEW-7197”) (Syngene, India) was dissolved in the carrier to prepare 2.5 mg/ml of TEW-7197 solution.
(§3) As for another administration drug, anti-PD-L1 monoclonal antibody (prepared by requesting to ANR therapeutics co., Ltd., host cell: HEK293F), anti-PD1 monoclonal hamster antibody (BioXCell, Cat. No. BE0033-2), anti-CTLA4 monoclonal hamster antibody (BioXCell, Cat. No. BE0131), human immunoglobulin G (IgG) (Thermo Scientific, Cat. No. 31154), and monoclonal hamster IgG (BioXCell, Cat. No. BE0091) were prepared.
(§4) The mouse models prepared in 1. were orally administered with 2.5 mg/ml of a TEW-7197 solution at a dose of 25 mg/weight kg once a day for 5 consecutive days of a week. Then, during the last 2 days, the TEW-7197 solution was not administered to them. These mice were administered with antibody at a dose of about 100 μg per mouse once every 2 days by abdominal injection. As for a control group for TEW-7197, a carrier administered group was used. As for a control group for antibody, a human IgG administered group and a hamster IgG administered group were used.
As described in 2., drug administration was carried out, and then 20 minutes after the last dose of the drug, mice were sacrificed, tumors were resected from the mice. Tumor volume was measured with calipers and calculated using Equation 1: Tumor volume (mm^3)=[length (mm)×width (mm)×height (mm)]/2 [Equation 1]
The difference between the initial tumor volume (V0) in the start date and the tumor volume after drug administration (Vt) was calculated, to calculate the change in tumor volume (Δt=Vt−V0). From the calculated tumor volume, the tumor inhibition rate (%) by drug administration was calculated.

[2] = Measurement of weight caused by administration drug in melanoma mouse model
Protocol: as §1, §2, §3, §4
From the day that the drugs were administered (start date) to the 11th day, the weights of mice were measured every 2 days.

[3] = tested on: B16F10 melanoma cell line; assay: Test of synergistic combination of drugs in mouse model; conditions: 11 days after drug administration, TEW-7197 10 mg/kg oral, antibody about 100 μg per mouse
Protocol: In detail, as described in 1., C57BL/6 mice were prepared, and 1×10^4 cells of B16F10 melanoma cell line (ATCC, CRL-6475™) were injected to each of the mice. When the average tumor size of each group reached about 26.0 mm^3, drug administration was carried out.
As described in 1., TEW-7197, anti-CTLA4 antibody, anti-PD-L1 antibody, anti-PD1 antibody, human IgG, and hamster IgG were prepared as drugs.
The prepared mice were orally administered with a TEW-7197 solution at a dose of 10 mg/weight kg once a day for 5 consecutive days of a week. Then, during the last 2 days, the TEW-7197 solution was not administered. These mice were administered with antibody at a dose of about 100 μg per mouse once every 2 days by abdominal injection. In a negative control group, a vehicle was administered for TEW-7197, and human IgG or hamster IgG was administered for antibody. 11 days after the drug administration, tumor volume was measured with calipers and calculated as described in 3.

SMILES: Cc1cccc(-c2[nH]c(CNc3ccccc3F)nc2-c2ccc3ncnn3c2)n1 [TEW-7197, N-((4-([1,2,4]triazolo[1,5-a]pyridin-6-yl)-5-(6-methylpyridin-2-yl)-1H-imidazol-2-yl)methyl)-2-fluoroaniline]
- tumor inhibition rate (vs. vehicle, human IgG or hamster IgG administered group) ([1]; 2 days after administration): 21.3%
- Tumor volume change (Δt = Vt − V0) ([1]; 2 days after administration): 30.4 ± 6.6 mm^3
- tumor inhibition rate (vs. vehicle, human IgG or hamster IgG administered group) ([1]; 4 days after administration): 21.7%
- Tumor volume change (Δt = Vt − V0) ([1]; 4 days after administration): 100.4 ± 11.4* mm^3
- tumor inhibition rate (vs. vehicle, human IgG or hamster IgG administered group) ([1]; 6 days after administration): 23.0%
- Tumor volume change (Δt = Vt − V0) ([1]; 6 days after administration): 174.5 ± 29.6** mm^3
- tumor inhibition rate (vs. vehicle, human IgG or hamster IgG administered group) ([1]; 8 days after administration): 22.9%
- Tumor volume change (Δt = Vt − V0) ([1]; 8 days after administration): 455.3 ± 67.1* mm^3
- tumor inhibition rate (vs. vehicle, human IgG or hamster IgG administered group) ([1]; 11 days after administration): 20.9%
- Tumor volume change (Δt = Vt − V0) ([1]; 11 days after administration): 1084.0 ± 179.5* mm^3
- Tumor volume change (Δt = Vt − V0) ([1]; Start date): 0.0 ± 0.0 mm^3
- weight change of mice (average (%) ± standard deviation) ([2]; 2 days after administration, TEW-7197 25 mg/kg oral, antibody about 100 μg per mouse): 104.3 ± 1.2%
- weight change of mice (average (%) ± standard deviation) ([2]; 4 days after administration, TEW-7197 25 mg/kg oral, antibody about 100 μg per mouse): 106.7 ± 3.5%
- weight change of mice (average (%) ± standard deviation) ([2]; 6 days after administration, TEW-7197 25 mg/kg oral, antibody about 100 μg per mouse): 108.7 ± 4.5%
- weight change of mice (average (%) ± standard deviation) ([2]; 8 days after administration, TEW-7197 25 mg/kg oral, antibody about 100 μg per mouse): 115.8 ± 6.4%
- weight change of mice (average (%) ± standard deviation) ([2]; 11 days after administration, TEW-7197 25 mg/kg oral, antibody about 100 μg per mouse): 125.0 ± 6.5%
- weight change of mice (average (%) ± standard deviation) ([2]; Start date, TEW-7197 25 mg/kg oral once a day 5 days a week, antibody about 100 μg per mouse every 2 days abdominal injection): 100.0 ± 0.0%
- weight change caused by drug (in words) ([2]; up to 11th day, Table 2): barely had significant weight change
- tumor volume decrease as compared with the negative control group ([3]; FIG. 1A (anti-CTLA4 series)): about 10.1%
- tumor volume decrease as compared with the negative control group ([3]; FIG. 1B (anti-PD-L1 series)): about 9.2%
- tumor volume decrease as compared with the negative control group ([3]; FIG. 1C (anti-PD1 series)): about 8.1%
